According to paper PMC4900596 (PLoS ONE, 2016):
Converted amounts (≈) assume the structure as drawn. Read-outs that look alike come from different tables or passages of the source.

Experiments:
[1] = test system: human peripheral blood mononuclear cells (PBMCs); experiment: Cell viability (necrotic changes), calcein-AM/propidium iodide staining, flow cytometry; type: cell-based; conditions: for concentration from which a decrease in cell viability was noted: significant vs control (P < 0.05); for IC50: PBMC, human PBMCs, 24 h incubation, unit mM printed in b27 only
Protocol: (§1) PBMCs were isolated from leucocyte-buffy coat collected from blood obtained in Blood Bank in Lodz, Poland. […] The testing was approved by the Bioethics Committee of the University of Lodz No. KBBN-UŁ/I/3/2013. PBMCs were diluted with PBS (1:4) and isolated using LSM (1.077 g/cm^3) by centrifugation at 600 g for 30 min at 20°C. PBMCs were collected, suspended in erythrocyte lysis buffer (150 mM NH4Cl, 10 mM NaHCO3, 1 mM EDTA, pH 7.4) and incubated for 5 min at 20°C. Then, PBS was added immediately, and the cells were centrifuged at 200 g for 15 min at 20°C. The supernatant was decanted, and the cells were washed twice with RPMI with L-glutamine and 10% fetal bovine serum (FBS) at 200 g for 15 min. The cells were resuspended in RPMI medium with L-glutamine, 10% FBS and penicylin-streptomycin (0.5%) and counted in haemocytometer. […] The viability of the cells was over 95%.
The calcein-AM/propidum iodide (PI) viability test is commonly used in toxicity assays to detect cell membrane integrity and to quantify the number of viable and necrotic cells. The calcein-AM is hydrolyzed to calcein, which has a negative charge and penetrates living cells, staining them green. PI is one of the most widely used fluorescent markers for staining of necrotic cells. This compound penetrates the cells, in which membrane was damaged, and binds to DNA. This dye has two positive charges, which prevent it from entering intact cells. […] After the incubation, the samples were centrifuged at 300 g for 5 min at 4°C, the supernatant was decanted, and the cells were supplemented with RPMI with L-glutamine and 10% FBS. The samples were treated with calcein-AM and PI in the final concentrations of 0.1 and 1 μM, respectively and incubated for 15 min at 37°C in total darkness. The analysis was performed by flow cytometry (Becton Dickinson, LSR II). FCM gate on PBMCs has been established for data acquisition, and the fluorescence was measured with excitation/emission maxima of 494/517 nm and 535/617 nm for calcein and PI, respectively. The data were recorded for a total of 10,000 events per sample.

[2] = test system: human peripheral blood mononuclear cells (PBMCs); experiment: Determination of the level of adenosine-5'-triphosphate (ATP), luciferase bioluminescence; type: cell-based; conditions: for concentration from which a decrease in ATP level was observed / ATP level decreased by up to: 24 h; for concentration from which a decrease in ATP level was observed: significant vs control; for IC50: PBMC, human PBMCs, 24 h incubation, unit inferred, read-out: IC50 for changes in ATP level; for ATP level decreased by up to: 10 mM, control = 100%
Protocol: as §1
The level of ATP in the cells was determined by bioluminescence measurement at 560 nm using recombinant luciferase and its substrate, D-luciferin. The high sensitivity of method enables detection of 0.1 pM ATP. The reaction proceeds in two stages. In the first step, as a result of the reaction of ATP with luciferin, a complex of adenosine with luciferin is formed with simultaneous releasing of phosphate group. Secondly the complex reacts with oxygen resulting in a formation of oxyluciferin and adenosine monophosphate (AMP). Oxyluciferin returning from its excited state to the base state emits luminescence. The reaction requires the presence of magnesium ions.

[3] = test system: human peripheral blood mononuclear cells (PBMCs); experiment: Measurement of cell morphology: size (FSC-A) and granularity (SSC-A) by flow cytometry; type: cell-based; conditions: for concentration from which changes in PBMCs granularity (SSC-A) occurred / concentration causing statistically significant changes in FSC-A parameter: 24 h incubation; for activity at 10 µM / activity at 50 µM / activity at 100 µM / activity at 250 µM / activity at 500 µM / activity at 5000 µM: Homo sapiens, PBMC, 4 h; for activity at 10 µM: 0.01 mM; for activity at 50 µM: 0.05 mM; for activity at 100 µM: 0.1 mM; for activity at 250 µM: 0.25 mM; for activity at 500 µM: 0.5 mM; for activity at 5000 µM: 5.0 mM; for increase in FSC-A parameter / increase in SSC-A parameter: strongest change, concentration and time not given
Protocol: as §1
The cells were then analyzed using a flow cytometry (LSR II; Becton-Dickinson). FMC gate on PBMCs has been established for data acquisition, and cell size and granularity were evaluated with simultaneous separate detection of low-angle (FSC-A) and right-angle (SSC-A) light scattering. […] The light scattered near the forward direction (low angle) is expected to be proportional to particle size (volume), whereas scattering at the right angle depends on cell granularity (internal properties of the scattered particles).

[4] = test system: HUVEC cell line, human kidney cells 293, placenta JEG3 cells; conditions: MTT; cited from earlier work
[5] = test system: choriocarcinoma cell line; conditions: MTT test; cited from earlier work
[6] = test system: PBMCs; conditions: cited from earlier work
[7] = read-out: FSC-A (percent of control)
[8] = read-out: SSC-A (percent of control)

SMILES | concentration from which a decrease in cell viability was noted ([1]; 24 h) [mM] | IC50 [1] [mM] | concentration from which a decrease in ATP level was observed [2] [mM] | IC50 [2] [mM] | concentration from which changes in PBMCs granularity (SSC-A) occurred [3] [mM] | activity at 10 µM [3, 7] [%] | activity at 10 µM [3, 8] [%] | activity at 50 µM [3, 7] [%] | activity at 50 µM [3, 8] [%] | activity at 100 µM [3, 7] [%] | activity at 100 µM [3, 8] [%] | activity at 250 µM [3, 7] [%] | activity at 250 µM [3, 8] [%] | activity at 500 µM [3, 7] [%] | activity at 500 µM [3, 8] [%] | activity at 5000 µM [3, 7] [%] | activity at 5000 µM [3, 8] [%] | PBMCs viability decreased by up to ([1]; 10 mM, 24 h, control = 100%) [%] | ATP level decreased by up to [2] [%] | concentration causing statistically significant changes in FSC-A parameter [3] [mM] | also measured
NCP(=O)(O)O [AMPA, aminomethylphosphonic acid] | ≥ 0.5 | > 10 | ≥ 5 | > 10 | ≥ 5 | 101 ± 4.61 | 101 ± 3.75 | 101 ± 4.45 | 100 ± 3.47 | 101 ± 5.04 | 101 ± 2.26 | 101 ± 3.96 | 101 ± 5.74 | 102 ± 3.93 | 101 ± 5.35 | 99.6 ± 5.18 | 102 ± 4.76 | – | – | – | –
O=P(O)(O)CNCP(=O)(O)O [Bis-(phosphonomethyl)amine, bis-(phosphonomethyl)amine] | ≥ 7.5 | 8.7 | ≥ 0.5 | 5.3 | ≥ 7.5 | 101 ± 2.38 | 98.4 ± 2.94 | 99.7 ± 2.54 | 100 ± 2.55 | 99.6 ± 2.04 | 100 ± 3.68 | 100 ± 2.68 | 100 ± 2 | 101 ± 3.34 | 101 ± 1.12 | 100 ± 3.88 | 103 ± 3.17 | 37.2 | 3.4 | ≥ 7.5 | increase in FSC-A parameter [3]: 9%; increase in SSC-A parameter [3]: 92%
O=C(O)CNCP(=O)(O)O [Glyphosate, N-phosphonomethylglycine, reference compound] | – | > 10 | ≥ 5 | 9.6 | ≥ 0.5 | 102 ± 3.55 | 99.2 ± 4.71 | 102 ± 2.94 | 99.7 ± 7.75 | 102 ± 2.38 | 101 ± 9.59 | 102 ± 4.69 | 101 ± 8.1 | 102 ± 3.89 | 102 ± 5.94 | 101 ± 3 | 104 ± 7.27 | – | – | – | decrease in cell viability ([1]; 10 mM, 24 h, control = 100%): 2.7%; concentration significantly affecting cell viability [4]: 100 µM; EC50 [5]: 16 mM; IC50 (cytotoxic effects) [6]: 56.4 µg/mL (≈ 334 µM)
O=P(O)(O)CO [Hydroxy-methylphosphonic acid, hydroxymethylphosphonic acid] | ≥ 7.5 | > 10 | ≥ 5 | > 10 | ≥ 5 | 100 ± 2 | 96.8 ± 4.77 | 100 ± 1.84 | 97.6 ± 4.71 | 100 ± 1.91 | 99.4 ± 1.17 | 101 ± 3.68 | 100 ± 3.33 | 100 ± 2.4 | 101 ± 2.05 | 100 ± 2.94 | 102 ± 2.14 | – | – | – | –
CN(CC(=O)O)CP(=O)(O)O [N-methylglyphosate] | ≥ 7.5 | > 10 | ≥ 0.5 | > 10 | ≥ 5 | 102 ± 3.97 | 101 ± 4.68 | 102 ± 2.66 | 101 ± 4.81 | 103 ± 3.27 | 102 ± 3.57 | 101 ± 5.72 | 102 ± 4.73 | 101 ± 4.66 | 102 ± 8.82 | 100 ± 4.82 | 102 ± 7.27 | – | – | – | –
O=C(O)CN(CC(=O)O)CP(=O)(O)O [PMIDA, N-(phosphonomethyl)iminodiacetic acid] | ≥ 5 | 7.9 | ≥ 5 | 6.1 | 10 | 100 ± 2.09 | 97.5 ± 4.97 | 100 ± 2.21 | 98.1 ± 5.81 | 100 ± 3.36 | 99.2 ± 5.42 | 100 ± 2.65 | 99.3 ± 4.63 | 100 ± 2.65 | 99.8 ± 6.3 | 101 ± 4.59 | 105 ± 5.12 | 3.4 | 2.1 | 10 | increase in FSC-A parameter [3]: 13%; increase in SSC-A parameter [3]: 150%
